Measurements from US20240343733A1, “COMPOUNDS FOR TARGETING DEGRADATION OF IRAK4 PROTEINS” (BIOGEN MA INC., priority 2021, published 2024).

Biological target: T1, IRAK4 (Homo sapiens, UniProt Q9NWZ3)
T1 construct: 293Tcells expressing HiBiT-tagged IRAK4 were then added into 384-well plates
T1 sequence (Q9NWZ3 1-460): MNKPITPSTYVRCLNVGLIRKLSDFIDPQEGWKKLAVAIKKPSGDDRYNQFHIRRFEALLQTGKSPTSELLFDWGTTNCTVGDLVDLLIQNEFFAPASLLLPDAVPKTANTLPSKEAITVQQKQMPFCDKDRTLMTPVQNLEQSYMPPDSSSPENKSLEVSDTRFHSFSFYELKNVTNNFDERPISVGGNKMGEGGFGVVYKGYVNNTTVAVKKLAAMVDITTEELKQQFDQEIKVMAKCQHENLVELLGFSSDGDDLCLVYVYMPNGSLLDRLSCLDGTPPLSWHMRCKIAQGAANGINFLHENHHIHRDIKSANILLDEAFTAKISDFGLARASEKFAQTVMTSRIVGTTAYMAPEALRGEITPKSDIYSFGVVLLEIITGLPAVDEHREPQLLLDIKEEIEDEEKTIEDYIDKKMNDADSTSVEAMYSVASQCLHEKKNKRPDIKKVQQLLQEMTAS
Assay: IRAK4 Degradation Assay, HiBiT Method
Type: cell-based
Conditions: 293T cells expressing HiBiT-tagged IRAK4, 6 hours
Protocol: Assay 1. IRAK4 Degradation Assay, HiBiT Method
Selected compounds were tested in an IRAK4 degradation assay using the HiBiT Method.
Phenol red-free Dulbecco's modified Eagle medium (DMEM) and fetal bovine serum (FBS) were purchased from Gibco (Grand Island, NY, USA). The Nano-Glo® HiBiT Lytic Assay System was purchased from Promega (Madison, WI, USA). Cell culture flasks and 384-well microplates were acquired from VWR (Radnor, PA, USA). The 293Tcell line was engineered by knocking-in a HiBiT fusion tag into the C-terminal of the IRAK4 gene in 293T cells (Synthego, Redwood City, CA, USA).
IRAK4 degradation was measured via the quantification of luminescent signals using the Nano-Glo® HiBiT Lytic Assay kit. Test compounds were added to 384-well plates in duplicate using an 11-point half-log dilution series, with the highest dose set at […]. 293Tcells expressing HiBiT-tagged IRAK4 were then added into 384-well plates at a cell density of 10,000 cells per well. The plates were kept at 37° C. with 5% CO2 for 6 hours. Cells that were treated only with DMSO served as the negative control; wells that contained only assay media served as the background control. After the 6-hour incubation, Nano-Glo® HiBiT Lytic Assay reagents were added to the cells. Luminescence was acquired using an EnVision™ Multilabel Reader (PerkinElmer, Santa Clara, CA, USA).

| Structure (SMILES) | DC50 [nM] |
| --- | --- |
| CC(C)Oc1cc2nn(C3CCN(C(=O)N(C)C4CCN(c5ncc(C6CCC(=O)NC6=O)cc5F)CC4)CC3)cc2cc1C(=O)Nc1cccn([C@H]2C[C@H]2F)c1=O (stereo partly drawn) [Example 155, 2-(1-((1-(5-(2,6-dioxopiperidin-3-yl)-3-fluoropyridin-2-yl)piperidin-4-yl)(methyl)carbamoyl)piperidin-4-yl)-N-(1-((1S,2R)-2-fluorocyclopropyl)-2-oxo-1,2-dihydropyridin-3-yl)-6-isopropoxy-2H-indazole-5-carboxamide] | 10 to 100 |
| CC(C)Oc1cc2nc([C@H]3CC[C@H](CN4CC5(CCCN5Cc5ccc(OC6CCC(=O)NC6=O)cc5)C4)CC3)cn2cc1C(=O)Nc1cccc(C(F)F)n1 (some centres unmarked) [Example 46, N-[6-(difluoromethyl)-2-pyridyl]-2-[4-[[5-[[4-[(2,6-dioxo-3-piperidyl)oxy]phenyl]methyl]-2,5-diazaspiro[3.4]octan-2-yl]methyl]cyclohexyl]-7-isopropoxy-imidazo[1,2-a]pyridine-6-carboxamide] | 10 to 100 |
| CC(C)Oc1cc2nc([C@H]3CC[C@H](CN4CCC(c5ccc(OC6CCC(=O)NC6=O)cc5)CC4)CC3)cn2cc1C(=O)Nc1cccn(C2CC2)c1=O (some centres unmarked) [Example 166, N-(1-cyclopropyl-2-oxo-1,2-dihydropyridin-3-yl)-2-((1r,4r)-4-((4-(4-((2,6-dioxopiperidin-3-yl)oxy)phenyl)piperidin-1-yl)methyl)cyclohexyl)-7-isopropoxyimidazo[1,2-a]pyridine-6-carboxamide] | 10 to 100 |
| CC(C)Oc1cc2nc(C3CCN(C(=O)CN4CCC(c5cc(F)c(C6CCC(=O)NC6=O)cc5F)CC4)CC3)cn2cc1C(=O)Nc1cnn2cccnc12 (centres unmarked) [Example 77, 2-[1-[2-[4-[4-(2,6-dioxo-3-piperidyl)-2,5-difluoro-phenyl]-1-piperidyl]acetyl]-4-piperidyl]-7-isopropoxy-N-pyrazolo[1,5-a]pyrimidin-3-yl-imidazo[1,2-a]pyridine-6-carboxamide] | 10 to 100 |
| CC(C)Oc1cc2nc(C3CCN(C(=O)CN4CCC(c5cc(F)c(C6CCC(=O)NC6=O)cc5F)CC4)CC3)cn2cc1C(=O)Nc1cccc(C(F)F)n1 (centres unmarked) [Example 76, N-[6-(difluoromethyl)-2-pyridyl]-2-[1-[2-[4-[4-(2,6-dioxo-3-piperidyl)-2,5-difluoro-phenyl]-1-piperidyl]acetyl]-4-piperidyl]-7-isopropoxy-imidazo[1,2-a]pyridine-6-carboxamide] | 10 to 100 |
| CC(C)Oc1cc2nc([C@H]3CC[C@H](CN4CCC(c5cccc(NC6CCC(=O)NC6=O)c5)CC4)CC3)cn2cc1C(=O)Nc1cccc(C(F)(F)F)n1 (some centres unmarked) [Example 12, 2-[4-[[4-[3-[(2,6-dioxo-3-piperidyl)amino]phenyl]-1-piperidyl]methyl]cyclohexyl]-7-isopropoxy-N-[6-(trifluoromethyl)-2-pyridyl]imidazo[1,2-a]pyridine-6-carboxamide] | 100 to 500 |
| CC(C)Oc1cc2nn([C@H]3CC[C@H](CN4CCOC[C@@H]4Cc4ccc(OC5CCC(=O)NC5=O)cc4)CC3)cc2cc1C(=O)Nc1cnn2cccnc12 (stereo partly drawn) [Example 131, 2-((1R,4r)-4-(((3R)-3-(4-((2,6-dioxopiperidin-3-yl)oxy)benzyl)morpholino)methyl)cyclohexyl)-6-isopropoxy-N-(pyrazolo[1,5-a]pyrimidin-3-yl)-2H-indazole-5-carboxamide] | 10 to 100 |
| CC(C)Oc1cc2nc([C@H]3CC[C@H](CN(C)C4CCN(c5ccc(C6CCC(=O)NC6=O)cc5)CC4)CC3)cn2cc1C(=O)Nc1cccc(C(F)F)n1 (some centres unmarked) [Example 30, N-[6-(difluoromethyl)-2-pyridyl]-2-[4-[[[1-[4-(2,6-dioxo-3-piperidyl)phenyl]-4-piperidyl]-methyl-amino]methyl]cyclohexyl]-7-isopropoxy-imidazo[1,2-a]pyridine-6-carboxamide] | < 10 |

Further lines, results first:

| DC50 [nM] | Structure (SMILES) |
| --- | --- |
| < 10 | CC(C)Oc1nc2nc(C3CCN(C(=O)CC4CCN(c5ncc(C6CCC(=O)NC6=O)cc5F)CC4)CC3)cn2cc1C(=O)Nc1cccn([C@H]2C[C@H]2F)c1=O (stereo partly drawn) [Example 186, 2-(1-(2-(1-(5-(2,6-dioxopiperidin-3-yl)-3-fluoropyridin-2-yl)piperidin-4-yl)acetyl)piperidin-4-yl)-N-(1-((1S,2R)-2-fluorocyclopropyl)-2-oxo-1,2-dihydropyridin-3-yl)-7-isopropoxyimidazo[1,2-a]pyrimidine-6-carboxamide] |
| < 10 | CC(C)Oc1cc2nc(C3CCC(CN4CC[C@H](c5cc6c(cc5F)c(N5CCC(=O)NC5=O)nn6C)[C@H](O)C4)CC3)cn2cc1C(=O)Nc1cccn([C@H]2C[C@H]2F)c1=O (stereo partly drawn) [Example 185, 2-((1S,4S)-4-(((3S,4R)-4-(3-(2,4-dioxotetrahydropyrimidin-1(2H)-yl)-5-fluoro-1-methyl-1H-indazol-6-yl)-3-hydroxypiperidin-1-yl)methyl)cyclohexyl)-N-(1-((1S,2R)-2-fluorocyclopropyl)-2-oxo-1,2-dihydropyridin-3-yl)-7-isopropoxyimidazo[1,2-a]pyridine-6-carboxamide] |
| < 10 | CC(C)Oc1cc2nc([C@H]3CC[C@H](CN4CCC(c5ccc6c(c5)oc(=O)n6C5CCC(=O)NC5=O)CC4)CC3)cn2cc1C(=O)Nc1cnn2cccnc12 (some centres unmarked) [Example 173, 2-((1r,4r)-4-((4-(3-(2,6-dioxopiperidin-3-yl)-2-oxo-2,3-dihydrobenzo[d]oxazol-6-yl)piperidin-1-yl)methyl)cyclohexyl)-7-isopropoxy-N-(pyrazolo[1,5-a]pyrimidin-3-yl)imidazo[1,2-a]pyridine-6-carboxamide] |
| < 10 | CC(C)Oc1cc2nc([C@H]3CC[C@H](CN4CC[C@H](c5ccc6c(N7CCC(=O)NC7=O)nn(C)c6c5)[C@H](O)C4)CC3)cn2cc1C(=O)Nc1cccn(C2CC2)c1=O [Example 178, N-(1-cyclopropyl-2-oxo-1,2-dihydropyridin-3-yl)-2-((S,4r)-4-(((3S,4R)-4-(3-(2,4-dioxotetrahydropyrimidin-1(2H)-yl)-1-methyl-1H-indazol-6-yl)-3-hydroxypiperidin-1-yl)methyl)cyclohexyl)-7-isopropoxyimidazo[1,2-a]pyridine-6-carboxamide] |
| < 10 | CC(C)Oc1cc2nn([C@H]3CC[C@H](CN4CC[C@H](c5ccc(OC6CCC(=O)NC6=O)cc5)[C@@H](O)C4)CC3)cc2cc1C(=O)Nc1cccn([C@H]2C[C@H]2F)c1=O (some centres unmarked) [Example 187] |
| < 10 | CC(C)Oc1cc2nc(C3CCN(C(=O)CC4CC5(C4)CN(c4ccc(C6CCC(=O)NC6=O)cn4)C5)CC3)cn2cc1C(=O)Nc1cccn([C@H]2C[C@H]2F)c1=O (stereo partly drawn) [Example 183, 2-(1-(2-(2-(5-(2,6-dioxopiperidin-3-yl)pyridin-2-yl)-2-azaspiro[3.3]heptan-6-yl)acetyl)piperidin-4-yl)-N-(1-((1S,2R)-2-fluorocyclopropyl)-2-oxo-1,2-dihydropyridin-3-yl)-7-isopropoxyimidazo[1,2-a]pyridine-6-carboxamide] |
| 10 to 100 | CC(C)Oc1cc2nc([C@H]3CC[C@H](CN4CCC(c5ccc6c(c5)n(C)c(=O)n6C5CCC(=O)NC5=O)C(F)(F)C4)CC3)cn2cc1C(=O)Nc1cccn([C@H]2C[C@H]2F)c1=O (stereo partly drawn) [Example 168, 2-((1r,4S)-4-((4-(1-(2,6-dioxopiperidin-3-yl)-3-methyl-2-oxo-2,3-dihydro-1H-benzo[d]imidazol-5-yl)-3,3-difluoropiperidin-1-yl)methyl)cyclohexyl)-N-(1-((1S,2R)-2-fluorocyclopropyl)-2-oxo-1,2-dihydropyridin-3-yl)-7-isopropoxyimidazo[1,2-a]pyridine-6-carboxamide] |
| < 10 | CC(C)Oc1cc2nc([C@H]3CC[C@H](CN4CC5(CCN(c6ncc(N7CCC(=O)NC7=O)cc6F)CC5)C4)CC3)cn2cc1C(=O)Nc1cnn2cccnc12 [Example 181, 2-((1r,4r)-4-((7-(5-(2,4-dioxotetrahydropyrimidin-1(2H)-yl)-3-fluoropyridin-2-yl)-2,7-diazaspiro[3.5]nonan-2-yl)methyl)cyclohexyl)-7-isopropoxy-N-(pyrazolo[1,5-a]pyrimidin-3-yl)imidazo[1,2-a]pyridine-6-carboxamide] |
| 10 to 100 | CC(C)Oc1cc2nc([C@H]3CC[C@H](CN4CCC(c5ncc(NC6CCC(=O)NC6=O)cc5F)CC4)CC3)cn2cc1C(=O)Nc1cccn(C2CC2)c1=O (some centres unmarked) [Example 174, N-(1-cyclopropyl-2-oxo-1,2-dihydropyridin-3-yl)-2-((1r,4r)-4-((4-(5-((2,6-dioxopiperidin-3-yl)amino)-3-fluoropyridin-2-yl)piperidin-1-yl)methyl)cyclohexyl)-7-isopropoxyimidazo[1,2-a]pyridine-6-carboxamide] |
